Data taken from patent US20120028359A1, “PRODUCTION PROCESS OF GENDER-SPECIFIC SERUM AND BIOMARKER USING THE SERUM” (priority 2009, published 2012).

Experiments:
FAT/CD36 [1] = test: Real-time RT-PCR, FAT/CD36 mRNA in adipogenic medium; assay type: cell-based, bovine; settings: adipogenic medium with C-MS, hormone-treated; FIG. 19
Procedure: (§1) Trizor™ reagent (Invitrogen) was used to extract total RNA from cells, according to the manufacturer's protocol. RNA was […] in diethylpyrocarbonate-treated water at −80° C. Concentrations of the extracted RNA samples were measured using an ND-100 spectrophotometer (NanoDrop Technologies, Wilmington, Del., USA) and the purity was checked with an Agilent 2100 bioanalyzer (Agilent Technologies, Palo Alto, Calif., USA) prior to RT-PCR. RNA was reverse-transcribed into the first stranded cDNA using Superscript-II reverse transcriptase (Invitrogen). Total RNA (1 μg in 20 μl total volume) was primed with oligo (dT) 20 primers (Bioneer, Daejeon, Korea), and reverse transcription was carried out at 42° C. for 50 min and 72° C. for 15 min. Subsequently, 2 μl of the 10× diluted cDNA product and 10 pmoles of each gene-specific primer were used to perform PCR using a 7500 real-time PCR system (Applied Biosystems, Foster City, Calif., USA). Power SYBR® Green PCR Master Mix (Applied Biosystems) was used as the fluorescence source. Primers were designed with Primer 3 software (http://frodo.wi.mit.edu) using sequence information listed at the National Center for Biotechnology Information. […]

myotube formed cells = test: Lipid accumulation in myotube formed cells treated with hormone; assay type: cell-based; settings: DMEM (phenol-red (−))/10% FBS, hormone for about 2 weeks; FIG. 5
Source text: Then, lipid accumulation levels of the cells were confirmed.

isolated MSCs = test: Lipid droplets (ORO) in MSCs in adipogenic medium with C-MS plus hormone; assay type: cell-based, bovine; settings: hormone-treated vs untreated, FIGS. 17 and 18
Procedure: The cells were cultured in adiopogenic medium treated with E2, testosterone, or E2 and testosterone. The cells were stained with ORO to check the accumulation of lipid droplets.

FAT/CD36 [2] = test: Immunocytochemistry, FAT/CD36 protein in adipogenic medium; assay type: cell-based, bovine; settings: adipogenic medium with C-MS, hormone-treated; FIG. 20
Procedure: Isolated MSCs were cultured in a covered glass-bottom dish and allowed to differentiate into myotubes or to transdifferentiate into ALCs under different serum conditions. Then, the culture mediun was removed and cells were rinsed with PBS. PBS rinsing was also performed between all subsequent steps. Cells were fixed with 4% formaldehyde, permeabilized by 0.2% Triton X-100 and 3-4 drops of Image-iT™ FX signal enhancer (Invitrogen) was applied. Primary antibody (mouse monoclonal IgG1 Myogenin; sc-12732, rabbit polyclonal IgG CD36 sc-9154; Santa Cruz Biotechnology, Santa Cruz Calif., USA) was added and incubated at 4° C. in a humid environment overnight, and then incubated with secondary antibody (Alexa Fluor 488 goat anti-mouse SFX kit and Alexa Fluor 488 goat anti-rabbit SFX kit; Molecular Probes, Eugene, Oreg., USA) at room temperature for 1 hour. Each cell nucleus was counterstained by […] (DAPI; Sigma-Aldrich, St. Louis Mo., USA). Immunostained cells were observed using a fluorescence microscope (Nikon).
MSCs were transdifferentiated into ALCs by switching the culture medium into adipogenic medium. To observe the effect of different sera on transdifferentiation, cells were cultured in adipogenic media supplemented with different sera for 7 days and stained with ORO. […]

bovine MSCs = test: MSC proliferation, cells enumerated with hematocytometer; assay type: cell-based; settings: MSC in C-MS or CDFBS, 10 nM hormone, vs respective control
Procedure: The cultured cells were harvested by trypsin-EDTA, and subcultured in wells of 6-well plates with DMEM supplemented with FBS after washing the collected cell precipitate. Cells were cultured for a day in the supplemented medium to allow for equal attachment in the culture dish. The next day the medium was removed and replaced with DMEM supplemented with 10% FBS, MS, FS and C-MS.
MSCs were cultured in DMEM supplemented with C-MS to observe the steroidal effect on the cultured muscle cells. E2, testosterone, or a combination of E2 and testosterone (all 10 nM) were added directly to each medium. Cells were enumerated under microscopic examination using a hematocytometer.
For MSC differentiation, cells were collected from a primary culture dish and subcultured. The cells in passage one were cultured in medium supplemented with FBS, MS, FS, or […] for three days, and cell numbers in each culture were enumerated.
MSC were subcultured in C-MS or CDFBS and treated with 10 nM of E2 or testosterone, or a combination of E2 and testosterone.

C2C12 myoblast cell line = test: C2C12 myoblast proliferation; assay type: cell-based; settings: testosterone-treated C-MS and CDFBS
Source text: In addition, the effect of different serum and steroids on the C2Cl2 myoblast cell line was also observed. The data generated were in agreement with those of bovine MSCs.

AR = test: Real-time RT-PCR, AR mRNA; assay type: cell-based, bovine; settings: hormone treatment, 10 nM, C-MS medium; FIG. 13
Procedure: as §1

Myogenin = test: Real-time RT-PCR, myogenin mRNA; assay type: cell-based, bovine; settings: hormone treatment, 10 nM, C-MS medium; FIG. 13
Procedure: as §1

SMILES	FAT/CD36 mRNA expression (FAT/CD36 [1])	lipid accumulation level in myotube (myotube formed cells)	lipid droplets, ORO staining (isolated MSCs)	FAT/CD36 protein expression (FAT/CD36 [2])	increment of cell proliferation (bovine MSCs)	C2C12 cell proliferation (C2C12 myoblast cell line)	AR expression (AR)	myogenin expression (Myogenin)
C[C@]12CC[C@@H]3c4ccc(O)cc4CC[C@H]3[C@@H]1CC[C@@H]2O [E2, 17β-estradiol]	significant increase	highest in myotube of the cells treated with 17β-estradiol, and decreases in the following order of [17β-estradiol+testosterone], testosterone, and the control group that was not treated with hormone	slight increase	upregulated	highest in the testosterone-treated culture followed by the combination E2 and testosterone, and E2 only			
C[C@]12CC[C@H]3[C@@H](CCC4=CC(=O)CC[C@@]43C)[C@@H]1CC[C@@H]2O [testosterone]		highest in myotube of the cells treated with 17β-estradiol, and decreases in the following order of [17β-estradiol+testosterone], testosterone, and the control group that was not treated with hormone	slight increase		highest in the testosterone-treated culture followed by the combination E2 and testosterone, and E2 only	markedly increased	up-regulated myogenin and AR expression significantly	up-regulated myogenin and AR expression significantly
